These are literature values, as cited in patent US20140100178A1, “COMPOSITION AND METHODS FOR SITE-SPECIFIC DRUG DELIVERY TO TREAT MALARIA AND OTHER LIVER DISEASES” (priority 2012, published 2014).

For series [1] the following is noted: prophylactic doses (0.5 mg base/kg/day); children and men with normal G6PD activity; toxicity associated with >10%.
The conditions of series [2]: in vivo.

Turning to `COc1cc(NC(C)CCCN)c2ncccc2c1` (centres unmarked) [primaquine, Primaquine], the mean methemoglobin rates in series [1] was 5.8%. The half life in series [2] is around 4 h.
